According to patent US20100325754A1, “Compositions and methods for modulating oxidative burst in plant transformation” (Syngenta Participations AG, priority 2009, published 2010):

Columns and labels:
[1] = tested on: MicroTom tomato cotyledon explants; test: Frequency of independent stable transgenic events and escapes in Agrobacterium-mediated MicroTom transformation (GUS staining)
Procedure: Sterilize MicroTom tomato seeds: (2.1 grams (g) of MicroTom tomato seeds, which equals approximately 900 seeds; supplied by Ball Horticultural Company, Chicago, Ill., USA. • add approximately 900 seeds to a sterile 250 milliliter (ml) flask • soak for 10 minutes (min) in the sterile 250 ml flask with ˜100 ml sterile double deionized (dd) water and then pour off the water. • add 100 ml of 70% ethanol to immerse the seeds for 1 min while stirring vigorously, pour off the ethanol, rinse the seeds 2 times with sterile dd water. • soak the seeds in 100 ml of 25% Chlorine bleach solution (chlorine bleach available under the registered trademark CLOROX®) with 3 drops of TWEEN™ 20 detergent for 10 min while stirring frequently, rinse the seeds three times with sterile dd water. • the seeds are germinated in MAGENTA™ box (available from bio-WORLD, Dublin, Ohio, United States of America) or culture box containing TGM medium (approximately 70 seeds/container), and the MAGENTA™ boxes are placed in a plastic box that is wiped down with 70% ethanol. The box cultures are placed in a dark incubator at 27° C. under the dark for 6 days (d). Seeds are distributed evenly and closely in the MAGENTA™ box, and pressed down on the media surface when placing the seeds on the germination medium.
Construct Information: The construct used in transformation contains a CaMV 35S promoter driving GUS (with GUS intron) and Nos promoter driving NPTII in Bin 19 binary vector (Frisch et al., 1995, Plant Molecular Biology 27:405-409). Agrobacterium tumefaciens strain EHA101 is used for transformation.
150 microliters (μl) of Vector 1 glycerol stock from −80° C. are placed on a fresh Luria Broth (LB)/rifampicin 50 microgram (μg)/ml/kanamycin 50 μg/ml plate on Friday of the week before transformation experiment, grown at about 28° C. for 3-4 d and stored in the refrigerator (4° C.) for the rest of the week. One day before inoculation, between 1:00 to 2:00 pm, a loopful of the bacterium cells from the freshly streaked plate is inoculated into 2 ml of liquid LB/rifampicin 50 μg/ml/kanamycin 50 μg/ml in a 17×100 Falcon tube, and grown at 28 C.° with 230 revolutions per minute (rpm) shaking. The next morning between 8:00 to 9:00 am, 0.2 ml of the overnight bacterium culture is inoculated into 2 ml of plain LB+0.2 millimeter (mM) acetosyringone in a 17×100 mm Falcon tube, and grown at about 28° C. with 230 rpm for 4 h.
Day 7 at about 2:00 pm. • 1) Cotyledon explants are isolated from seedlings 6 d after sowing seeds on TGM medium. • 2) About 25 cotyledon explants are prepared at a time by bathing them in a sterile petri dish plate containing 6 ml of Fillatti's suspension medium (FSM) liquid medium to prevent desiccation and trimming them at both ends using a #15 feather blade. Note: it is desirable to use the cotyledons that make a fairly tight “V” shape (two cotyledons that are at closed shape are acceptable to be used). • 3) Immediately after the trimming, the 25 cotyledon explants are gently placed on “feeder plates”—TCM medium. The “feeder plates” are made by overlaying 2 ml of tobacco suspension cells and a sterile WHATMAN™ filter (No. 1, Cat No. 1001090, VWR; Whatman Inc., Florham Park, N.J., United States of America) on the plates containing TCM medium. • 4) Cotyledon explants are gently poked with a sharp forceps and usually six pokes are made per explant. It is desirable that the sharp forceps gently touch the surface of explants and then make a slight movement on the touched surface in order to have a larger and shallower wounding surface that results in good transient expression. • 5) Right after poking, the cotyledons are inoculated with Agrobacterium by adding 3 ml of the Agrobacterium solution (OD600=0.1) suspended in FSM liquid medium to the top of cotyledons. The plates are incubated for 10 min at room temperature and the Agrobacterium solution is aspirated with a sterile pipette.

[2] = tested on: soybean immature seed explants; test: Soybean transformation frequency (TAQMAN positive plants); assay type: cell-based, Soybean (Glycine max, Jack); conditions: transgenic plants after rooting
rice calli (Nipponbare) = test: Rice stable callus transformation efficiency; assay type: cell-based; conditions: co-cultivation and recovery media
Procedure: • 1. […] Check for any off-type seeds and discard these. • 2. Surface sterilize seeds in a 50 ml sterile tube with 70% ethanol for 1 to 2 min with shaking (ethanol treatment step is optional). • 3. Remove ethanol. • 4. Add 50% (v/v) CLOROX® bleach (2.4% Na hypochlorite) or 40% (v/v) ULTRA CLOROX® (˜3.2% Na hypochlorite) and one drop of TWEEN™-20 detergent, shake for 30-40 min on a shaker at 100-200 rpm. • 5. Remove CLOROX® solution and rinse with sterile water at least three times, until all sign of TWEEN™-20 detergent (soap bubbles) is gone. • 6. Seeds are ready to plate on sterile medium. • 7. Check for bacterial and fungal contaminations at 3 and 5 days later, respectively.
• 1. Soak sterilized seeds in sterile water for 1-2 d until fully imbibed (optional step) • 2. Plate pre-soaked or sterilized mature seeds onto rice callus induction medium (MS-CIM) at 12 seeds per plate. Culture in dark at 28° C. for 6 d prior to inoculation or for 4 weeks (wks) for production of embryogenic cultures. • 3. At 4 wks, selectively excise high quality target material and transfer to MS-CIM at 25 pieces per plate. Culture in dark for 8 d at 28° C. before inoculation.
• 1. If possible, choose bacteria from the area of the plate where there are many individual single colonies of bacteria growing for inoculation. Transfer ˜7 inoculation loops full of Agrobacterium culture to a 50 ml sterile plastic tube containing 20 ml liquid MS media with acetosyringone (As) added to 200 μM (add 1 μl As stock at 40 mg/ml per ml of suspension). Vortex to completely dissolve bacteria in liquid and bring volume to 50 ml. • 2. Measure the Agrobacterium suspension OD at 660 nm. Dilute the culture to an OD660 of 0.2-0.3 (higher concentrations can offer higher transformation frequencies but can cause damage/browning in some cultivars). Induce the bacteria with acetosyringone for at least 30 min. • 3. Inoculate cultured rice seeds or rice embryogenic culture responses by immersing target material in the bacterial suspension for 30 min. • 4. Try to make sure that all target pieces are completely immersed in the bacterial solution and shake regularly to ensure that this continues to be the case. • 5.
Transfer the inoculated seeds/cultures to multiple shoot-acetosyringone (MS-As) co-cultivation medium with sterile 85 mm filter paper. Each filter paper is wetted with 1 ml of MSInoc (see recipe below) liquid media with the concentrations of MT (in μM) listed below. Fifty (50) pieces per plate; incubate at 22° C. for 3 d. • A: Filter Paper • B: Filter Paper 2MT • C: Filter Paper 10MT • D: Filter Paper 100MT • E: Filter Paper 300MT • F: Filter Paper 1000MT
• 1. After ˜36 hours of co-cultivation, transfer the co-cultivated seeds/responses to Agrobacterium inhibition medium MS-400Tim (see recipe below) (1 plate→1 plate). Culture in the dark at 28° C. for ˜7 days. • 2. Score the scorable marker control plate for gene delivery efficiency at 4 to 5 days after co-cultivation • A: Recovery Media • B: Recovery Media+2MT • C: Recovery Media+10MT • D: Recovery Media+100MT • E: Recovery Media+300MT • F: Recovery Media+1000MT
• 1. Transfer calli to selection medium (17.5 g/l mannose/5 g/l sucrose). Culture in dark at ˜28° C. for 2 to 3 weeks, observing periodically for colony proliferation and contamination. • 2. Select mannose resistant embryogenic micro-colonies under microscope when proliferating colonies are big enough to grow independently, but not so big that they have begun to grow together. […]

[3] = tested on: MicroTom tomato cotyledons; test: Tissue extreme browning of MicroTom tomato cotyledon explants after Agrobacterium inoculation; assay type: cell-based, Solanum lycopersicum (tomato); conditions: for Extreme Browning Rate: 3 days after selection
Source text: For tissue browning and transient expression data collection, 3 d after selection cotyledon explant data are collected for tissue browning under a dissecting microscope, and then for transient expression by GUS staining.

[4] = epicatechin 50 mg/l, 6 weeks after selection
[5] = epicatechin 100 mg/l, 6 weeks after selection
[6] = epicatechin 1000 mg/l, 6 weeks after selection
[7] = resveratrol 50 μM, 6 weeks after selection
[8] = resveratrol 100 μM, 6 weeks after selection
[9] = resveratrol 200 μM, 6 weeks after selection
[10] = N-t-butyl hydroxylamine 10 μM, 4 weeks after selection
[11] = N-t-butyl hydroxylamine 50 μM, 4 weeks after selection
[12] = N-t-butyl hydroxylamine 100 μM, 4 weeks after selection

Oc1cc(O)c2c(c1)O[C@H](c1ccc(O)c(O)c1)[C@H](O)C2 [Epicatechin, epicatechin]
Frequency of escapes [1, 4]: 1.7 ± 2.4% | Frequency of independent stable transgenic events [1, 4]: 418.3 ± 25.9 B % | Frequency of escapes [1, 5]: 0.0 ± 0.0% | Frequency of independent stable transgenic events [1, 5]: 521.7 ± 16.5 A % | Frequency of escapes ([1]; epicatechin 100 mg/l, 6 weeks after selection, listed as epicatechin): 0% | toxicity to plant tissues (inferred from reduced stable transformation frequency) ([1]; epicatechin 1000 mg/l): might be toxic to plant tissues at that concentration | Frequency of escapes [1, 6]: 1.7 ± 2.4% | Frequency of independent stable transgenic events [1, 6]: 51.7 ± 2.4 D %

COc1ccc2[nH]cc(CCNC(C)=O)c2c1 [melatonin, N-Acetyl-5-methoxytryptamine]
Frequency of escapes ([1]; melatonin 10 μM, 4 weeks after selection): 1.7 ± 0.0% | Frequency of independent stable transgenic events ([1]; melatonin 10 μM, 4 weeks after selection, Table 5): 214.4% ± 6.2 A | Frequency of escapes ([1]; melatonin 50 μM, 4 weeks after selection): 0.0 ± 0.0% | Frequency of independent stable transgenic events ([1]; melatonin 50 μM, 4 weeks after selection, Table 5): 221.3% ± 47.7 A | Frequency of escapes ([1]; melatonin 100 μM, 4 weeks after selection): 0.0 ± 0.0% | Frequency of independent stable transgenic events ([1]; melatonin 100 μM, 4 weeks after selection, Table 5): 229.4% ± 55.7 A | Frequency of independent stable transgenic events ([1]; melatonin 100 μM, 4 weeks after selection, Table 6 (second set)): 213.3% ± 75.4 A | Frequency of independent stable transgenic events ([1]; melatonin 500 μM, 4 weeks after selection, Table 6): 121.7% ± 1.7 B | Frequency of independent stable transgenic events ([1]; melatonin 1000 μM, 4 weeks after selection, Table 6): 80.0% ± 14.1 B | frequency of independent stable transgenic events, increased to ([1]; melatonin at 10, 50 and 100 μM, from 88% in negative control without melatonin): 229% | Transformation frequency ([2]; melatonin 1 μM in infection and co-cultivation media, glyphosate selection): 7.6% + | Transformation frequency ([2]; melatonin 10 μM in infection and co-cultivation media): 7.5% + | Transformation frequency ([2]; melatonin 100 μM in infection and co-cultivation media): 4.5% + | % of stable callus sectors (rice calli (Nipponbare); melatonin 2 μM in inoculation, transgenic callus after selection, 50 explants): 148.0% | % of stable callus sectors (rice calli (Nipponbare); melatonin 10 μM in inoculation, after selection): 156.0% | % of stable callus sectors (rice calli (Nipponbare); melatonin 100 μM in inoculation, after selection): 140.0% | % of stable callus sectors (rice calli (Nipponbare); melatonin 300 μM in inoculation, after selection): 140.0% | % of stable callus sectors (rice calli (Nipponbare); melatonin 1000 μM in inoculation, after selection): 86.0% | Extreme Browning Rate ([3]; 10 μM melatonin in selection stage media, percentage of pokes with browning area ≧70%, Table 3): 21.5% | tissue browning reduced, compared to the negative control ([3]; 10 μM melatonin in transformation media): 3.0 fold | Extreme Browning Rate ([3]; 50 μM melatonin in selection stage media, Table 3): 11.8% | tissue browning reduced, compared to the negative control ([3]; 50 μM melatonin in transformation media): 5.5 fold | Extreme Browning Rate ([3]; 100 μM melatonin in selection stage media, Table 3 (first set)): 6.4% | tissue browning reduced, compared to the negative control ([3]; 100 μM melatonin in transformation media): 10.2 fold | Extreme Browning Rate ([3]; 100 μM melatonin, Table 4 (second set)): 22.2% | Extreme Browning Rate ([3]; 500 μM melatonin, Table 4): 21.0% | Extreme Browning Rate ([3]; 1000 μM melatonin, Table 4): 50.6%

Oc1ccc(C=Cc2cc(O)cc(O)c2)cc1 [Resveratrol, resveratrol]
Frequency of escapes [1, 7]: 4.4 ± 7.7% | Frequency of independent stable transgenic events [1, 7]: 297.8 ± 24.6 B % | reduction of escapes compared with the negative control ([1]; resveratrol 100 μM): 5 fold | Frequency of escapes [1, 8]: 1.1 ± 1.9% | Frequency of independent stable transgenic events [1, 8]: 356.7 ± 10.0 A % | Frequency of escapes [1, 9]: 1.1 ± 1.9% | Frequency of independent stable transgenic events [1, 9]: 227.8 ± 17.1 C %

CC(C)(C)NO [N-t-butyl hydroxylamine]
reduction of frequency of escapes compared with the negative control ([1]; N-t-butyl hydroxylamine 10 μM): 2.5 fold | Frequency of escapes [1, 10]: 4.4 ± 5.1% | Frequency of independent stable transgenic events [1, 10]: 245.6 ± 44.0 A % | Frequency of escapes [1, 11]: 6.7 ± 3.3% | Frequency of independent stable transgenic events [1, 11]: 222.2 ± 9.6 AB % | Frequency of escapes [1, 12]: 8.9 ± 1.9% | Frequency of independent stable transgenic events [1, 12]: 205.6 ± 10.2 AB %
